Test results reported in US9980943B2, “Methods of treating muscular dystrophy” (BOARD OF REGENTS OF THE NEVADA SYSTEM OF HIGHER EDUCATION, …, priority 2013, dated 2018).

How the values were obtained:
Assay type in all cases: cell-based, mouse
[1] = system: α7 integrin (LacZ reporter in α7βgal+/− myoblasts); test: Myoblast α7+/LacZ integrin FDG assay (Burkin assay in myoblasts, 96-well); conditions: α7+/LacZ myoblasts, 96-well
[2] = system: α7 integrin (LacZ reporter in α7+/LacZ myotubes); test: Myotube α7 integrin FDG assay (Burkin assay in myotubes, 96-well); conditions: myotubes
[3] = system: β-galactosidase in CMV-LacZ C2C12 myotubes; test: CMV-LacZ secondary screen in C2C12 myotubes (β-Gal stabilizing assay); conditions: for CMV-LACZ in Myotubes (β-galactosidase activity relative to DMSO): CMV-LacZ C2C12 myotubes, 96-well format
From the text: In order to determine compounds that acted to stabilize β-gal in myogenic cells, a CMV-LacZ C2C12 cell line was used in a secondary screen. The EGFP gene from the pEGFP (Clontech) vector was replaced by LACZ PCR product with digests of the vector/PCR product performed using EcoRI (NEB) and NotI (NEB) and ligated using T4 DNA Ligase (NEB) following standard procedures to produce the CMV-LACZ vector. The LACZ gene was generated by PCR from the pBK-RSV (Stratagene) vector using primers LACZ EcoRI F- and LACZ NotI R-. The CMV-LACZ vector was then digested with AfIII (NEB) to linearize the construct, which was then transfected in C2C12 myoblasts using Lipofectamine 2000 (Invitrogen) following the manufacturer's instructions. […] Clonal lines were selected and screened for βgal levels using the myoblast FDG assay.
The assays were used the original 96-well format and new dose-response curves for myoblasts (N=3-6 replicates for each data point), myotubes (N=3-6 replicates for data point), and CMV-LacZ secondary assay (N=2 replicates for each data point) using concentrations of 0.5 μM, 1 μM, 5 μM, 10 μM, 20 μM, and 40 μM (Tables 9-16).

[4] = 5 uM, C2C12 CMV-LacZ myotubes, fold relative to DMSO
[5] = 10 uM, C2C12 CMV-LacZ myotubes, fold relative to DMSO
[6] = 20 uM, C2C12 CMV-LacZ myotubes, fold relative to DMSO
[7] = 40 uM, C2C12 CMV-LacZ myotubes, fold relative to DMSO

Compound	Burkin Assay in Myoblasts, value relative to DMSO ([1]; 0.5 uM)	Burkin Assay in Myoblasts, value relative to DMSO ([1]; 1 uM)	Burkin Assay in Myoblasts, value relative to DMSO ([1]; 5 uM)	Burkin Assay in Myoblasts, value relative to DMSO ([1]; 10 uM)	Burkin Assay in Myoblasts, value relative to DMSO ([1]; 20 uM)	Burkin Assay in Myoblasts, value relative to DMSO ([1]; 40 uM)	Burkin Assay in Myotubes (signal relative to DMSO) ([2]; 0.5 uM)	Burkin Assay in Myotubes (signal relative to DMSO) ([2]; 1 uM)	Burkin Assay in Myotubes (signal relative to DMSO) ([2]; 5 uM)	Burkin Assay in Myotubes (signal relative to DMSO) ([2]; 10 uM)	Burkin Assay in Myotubes (signal relative to DMSO) ([2]; 20 uM)	Burkin Assay in Myotubes (signal relative to DMSO) ([2]; 40 uM)	CMV-LACZ in Myotubes (β-galactosidase activity relative to DMSO) ([3]; 5 uM)	CMV-LACZ in Myotubes (β-galactosidase activity relative to DMSO) ([3]; 10 uM)	CMV-LACZ in Myotubes (β-galactosidase activity relative to DMSO) ([3]; 20 uM)	CMV-LACZ in Myotubes (β-galactosidase activity relative to DMSO) ([3]; 40 uM)	CMV-LACZ in Myotubes, signal relative to DMSO [3, 4]	CMV-LACZ in Myotubes, signal relative to DMSO [3, 5]	CMV-LACZ in Myotubes, signal relative to DMSO [3, 6]	CMV-LACZ in Myotubes, signal relative to DMSO [3, 7]	other results
O=C(NCc1ccccc1)C(c1ccc(O)cc1)N(C(=O)Cn1nnc(-c2cccs2)n1)c1ccc2c(c1)OCCO2 (stereo not shown) [MLS000123454-01]	0.8934	0.8234	0.7862	0.8621	1.519	1.013	1.067	0.8963	1.047	1.083	0.6841	0.8852	0.9353	0.9323	0.8796	1.055					
Cc1cccc(OCc2nc(C#N)c(N3CCCC3)o2)c1 [MLS000332693-01]	1.04	0.9937	1.068	1.095	0.895	0.9225	1.0441	0.9631	1.092	0.9798	0.9709	0.9252	1.244	0.9794	0.8804	0.9304					
Cc1ccccc1OCC(=O)Nc1nnc(-c2ccco2)s1 [MLS000333610-01]																	0.832	0.7867	0.9429	0.9948	Burkin Assay in Myoblasts, signal relative to DMSO ([1]; 0.5 uM): 0.8664; Burkin Assay in Myoblasts, signal relative to DMSO ([1]; 1 uM): 0.9253; Burkin Assay in Myoblasts, signal relative to DMSO ([1]; 5 uM): 1.048; Burkin Assay in Myoblasts, signal relative to DMSO ([1]; 10 uM): 0.9188; Burkin Assay in Myoblasts, signal relative to DMSO ([1]; 20 uM): 0.7975; Burkin Assay in Myoblasts, signal relative to DMSO ([1]; 40 uM): 0.7794; Burkin Assay in Myotubes, α7 integrin LacZ reporter signal relative to DMSO ([2]; 0.5 uM): 0.986; Burkin Assay in Myotubes, α7 integrin LacZ reporter signal relative to DMSO ([2]; 1 uM): 1.039; Burkin Assay in Myotubes, α7 integrin LacZ reporter signal relative to DMSO ([2]; 5 uM): 1.003; Burkin Assay in Myotubes, α7 integrin LacZ reporter signal relative to DMSO ([2]; 10 uM): 0.9932; Burkin Assay in Myotubes, α7 integrin LacZ reporter signal relative to DMSO ([2]; 20 uM): 0.8742; Burkin Assay in Myotubes, α7 integrin LacZ reporter signal relative to DMSO ([2]; 40 uM): 0.9096
COc1ccccc1NC(=O)CCCc1c[nH]c2ccccc12 [MLS000334464-01]																					fold induction at 0.5 µM ([1]; Mus musculus, Myoblast, 48 h, 0.5 uM, read-out: Burkin Assay in Myoblasts, value relative to DMSO): 1.13; fold induction at 1 µM ([1]; Mus musculus, Myoblast, 48 h, 1 uM, read-out: Burkin Assay in Myoblasts, value relative to DMSO): 1.11; fold induction at 5 µM ([1]; Mus musculus, Myoblast, 48 h, 5 uM, read-out: Burkin Assay in Myoblasts, value relative to DMSO): 1.18; fold induction at 10 µM ([1]; Mus musculus, Myoblast, 48 h, 10 uM, read-out: Burkin Assay in Myoblasts, value relative to DMSO): 1.14; fold induction at 20 µM ([1]; Mus musculus, Myoblast, 48 h, 20 uM, read-out: Burkin Assay in Myoblasts, value relative to DMSO): 0.896; fold induction at 40 µM ([1]; Mus musculus, Myoblast, 48 h, 40 uM, read-out: Burkin Assay in Myoblasts, value relative to DMSO): 1.08; fold induction at 0.5 µM ([2]; Mus musculus, Myotube, 0.5 uM, read-out: Burkin Assay in Myotubes (signal relative to DMSO)): 0.986; fold induction at 1 µM ([2]; Mus musculus, Myotube, 1 uM, read-out: Burkin Assay in Myotubes (signal relative to DMSO)): 0.88; fold induction at 5 µM ([2]; Mus musculus, Myotube, 5 uM, read-out: Burkin Assay in Myotubes (signal relative to DMSO)): 1; fold induction at 10 µM ([2]; Mus musculus, Myotube, 10 uM, read-out: Burkin Assay in Myotubes (signal relative to DMSO)): 0.992; fold induction at 20 µM ([2]; Mus musculus, Myotube, 20 uM, read-out: Burkin Assay in Myotubes (signal relative to DMSO)): 1.13; fold induction at 40 µM ([2]; Mus musculus, Myotube, 40 uM, read-out: Burkin Assay in Myotubes (signal relative to DMSO)): 0.666; fold induction at 5 µM ([3]; Mus musculus, C2C12, read-out: CMV-LACZ in Myotubes, signal relative to DMSO, 5 uM, C2C12 CMV-LacZ myotubes, fold relative to DMSO): 1.3; fold induction at 10 µM ([3]; Mus musculus, C2C12, read-out: CMV-LACZ in Myotubes, signal relative to DMSO, 10 uM, C2C12 CMV-LacZ myotubes, fold relative to DMSO): 1.08; fold induction at 20 µM ([3]; Mus musculus, C2C12, read-out: CMV-LACZ in Myotubes, signal relative to DMSO, 20 uM, C2C12 CMV-LacZ myotubes, fold relative to DMSO): 0.988; fold induction at 40 µM ([3]; Mus musculus, C2C12, read-out: CMV-LACZ in Myotubes, signal relative to DMSO, 40 uM, C2C12 CMV-LacZ myotubes, fold relative to DMSO): 0.964
Cc1ccc(-c2csc(Nc3ccc(C(=O)O)cc3)[n+]2Cc2ccccc2)cc1 [MLS000374261-01]	0.7676	0.7758	0.7248	0.7138	0.8376	0.8321	0.8144	0.8386	1.131	0.9288	0.423	0.449	0.8246	0.8319	0.448	0.5036					
Cc1ccc(-c2nc(C)sc2CC(=O)OCC(=O)Nc2c(F)cccc2F)cc1 [MLS000388722-01]	0.93	1.1187	1.1052	1.1175	0.9101	0.9407	0.9225	0.9369	1.032	1.042	0.8001	0.9404					0.9569	1.067	1.085	0.8668	
CC(OC(=O)c1cc(-c2cccnc2)nc2ccccc12)C(=O)Nc1ccc2ccccc2c1 (stereo not shown) [MLS000389484-01]																	0.8524	0.8387	1.116	2.781	Burkin Assay in Myoblasts, signal relative to DMSO ([1]; 0.5 uM): 0.7848; Burkin Assay in Myoblasts, signal relative to DMSO ([1]; 1 uM): 0.7672; Burkin Assay in Myoblasts, signal relative to DMSO ([1]; 5 uM): 0.8524; Burkin Assay in Myoblasts, signal relative to DMSO ([1]; 10 uM): 0.8706; Burkin Assay in Myoblasts, signal relative to DMSO ([1]; 20 uM): 0.7331; Burkin Assay in Myoblasts, signal relative to DMSO ([1]; 40 uM): 0.6132; Burkin Assay in Myotubes, α7 integrin LacZ reporter signal relative to DMSO ([2]; 0.5 uM): 0.9292; Burkin Assay in Myotubes, α7 integrin LacZ reporter signal relative to DMSO ([2]; 1 uM): 0.7793; Burkin Assay in Myotubes, α7 integrin LacZ reporter signal relative to DMSO ([2]; 5 uM): 0.8638; Burkin Assay in Myotubes, α7 integrin LacZ reporter signal relative to DMSO ([2]; 10 uM): 0.6433; Burkin Assay in Myotubes, α7 integrin LacZ reporter signal relative to DMSO ([2]; 20 uM): 0.867; Burkin Assay in Myotubes, α7 integrin LacZ reporter signal relative to DMSO ([2]; 40 uM): 0.6946
